Patent US10124004B2, “Pyrido[3,4-d]pyrimidine derivative and pharmaceutically acceptable salt thereof” (Teijin Pharma Limited, priority 2015, dated 2018)

Columns and labels:
[1] = molecular target: T1, CDK4/cyclin D3 (Homo sapiens, UniProt P11802); assay: Human CDK4/cyclin D3 inhibitory activity (QS S Assist CDK4/Cyclin D3_FP Kit, IMAP fluorescence polarization); assay type: biochemical; settings: 50% inhibitory concentration against CDK4/cyclin D3, given as class symbol
T1 construct: purchased Carna Biosciences, Inc. QS S Assist CDK4/Cyclin D3_FP Kit
T1 sequence (P11802 whole entry): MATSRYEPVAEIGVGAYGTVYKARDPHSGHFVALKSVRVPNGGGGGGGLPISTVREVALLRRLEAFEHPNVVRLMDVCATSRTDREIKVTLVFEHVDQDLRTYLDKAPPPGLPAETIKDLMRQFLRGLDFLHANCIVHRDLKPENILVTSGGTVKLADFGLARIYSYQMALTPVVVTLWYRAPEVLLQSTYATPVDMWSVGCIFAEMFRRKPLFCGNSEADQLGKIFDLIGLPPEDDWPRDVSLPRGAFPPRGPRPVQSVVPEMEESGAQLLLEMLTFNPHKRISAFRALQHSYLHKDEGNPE
T1 sequence (P30281 whole entry partner): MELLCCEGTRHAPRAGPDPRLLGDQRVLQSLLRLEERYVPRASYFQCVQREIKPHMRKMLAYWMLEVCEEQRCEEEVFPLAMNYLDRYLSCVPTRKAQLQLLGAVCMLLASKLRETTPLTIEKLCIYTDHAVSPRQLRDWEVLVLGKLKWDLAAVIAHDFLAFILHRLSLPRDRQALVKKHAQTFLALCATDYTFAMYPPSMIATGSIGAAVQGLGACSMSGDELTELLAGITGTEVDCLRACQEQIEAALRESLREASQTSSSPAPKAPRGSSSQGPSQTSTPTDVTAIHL
How it was run: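 IMAP fluorescence-polarization kinase assay with kit ATP/substrate/metal mix and 12.5 to 25 ng/well enzyme in 20 mM HEPES pH 7.4, 0.01% Tween20, 2 mM DTT. Reaction ran 45 min at room temperature, then binding reagent was added for 30 min in the dark. IC50 was taken from dose-response fits of percent inhibition.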

[2] = molecular target: T2, CDK2/cyclin A2 (Homo sapiens, UniProt P24941); assay: Human CDK2/cyclin A2 inhibitory activity (QS S Assist CDK2/Cyclin A2_FP Kit, IMAP fluorescence polarization); assay type: biochemical; settings: 50% inhibitory concentration against CDK2/cyclin A2, given as class symbol
T2 construct: purchased Carna Biosciences, Inc. QS S Assist CDK2/Cyclin A2_FP Kit
How it was run: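 Kinase activity read as fluorescence polarization (485/535 nm) after phosphorylated fluorescent substrate binds IMAP reagent (30 min, RT, dark). Enzyme (2.5 ng/well) reacted 60 min at RT with ATP/substrate/metal in HEPES pH 7.4 buffer with Tween 20 and DTT; no-enzyme wells define 0% activity; IC50 by curve fit.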

| IC50 [1] [nM] | IC50 [2] [nM] | Compound |
| --- | --- | --- |
| < 10 | ≥ 100 | CCCNc1nc(C2CCOC2)cc2cnc(Nc3ccc4c(n3)CCNC4)nc12 (stereo not shown) [Compound 948] |
| < 10 | ≥ 100 | CC(C)Nc1nc([C@@H](C)O)cc2cnc(Nc3ccc(Cn4cncn4)cn3)nc12 [Compound 949] |
| < 10 | ≥ 100 | CC(C)Nc1nc([C@@H](C)O)cc2cnc(Nc3ccc(CC4CCNCC4)cn3)nc12 [Compound 950] |
| < 10 | ≥ 100 | CC(C)Nc1nc([C@@H](C)O)cc2cnc(Nc3ccc(CC4CCN(CCO)CC4)cn3)nc12 [Compound 951] |
| < 10 | ≥ 100 | C[C@@H](O)c1cc2cnc(Nc3ccc(CC4CCNCC4)cn3)nc2c(NCC2CCOCC2)n1 [Compound 952] |
| < 10 | ≥ 100 | C[C@@H](O)c1cc2cnc(Nc3ccc(CC4CCN(CCO)CC4)cn3)nc2c(NCC2CCOCC2)n1 [Compound 953] |
| < 10 | ≥ 100 | CC(C)Nc1nc([C@@H](C)O)cc2cnc(Nc3ccc4c(n3)CCN(CCN3CCCC3=O)C4)nc12 [Compound 955] |
| < 10 | ≥ 100 | CO[C@H](C)c1cc2cnc(Nc3ccc(C4CCNCC4)cn3)nc2c(N[C@H]2CCCOC2)n1 [Compound 956] |
| < 10 | ≥ 100 | C[C@@H](O)c1cc2cnc(Nc3ccc(C4CCNCC4)cn3)nc2c(N[C@H]2CCCOC2)n1 [Compound 957] |
| < 10 | ≥ 100 | CC(C)Nc1nc([C@@H](C)O)cc2cnc(Nc3ccc(-c4cncn4C)cn3)nc12 [Compound 958] |
| 10 to 100 | ≥ 100 | CCCNc1nc([C@@H](C)O)cc2cnc(Nc3ccc(-c4cncn4C)cn3)nc12 [Compound 959] |
| < 10 | ≥ 100 | CNC(=O)CN1CCN(c2ccc(Nc3ncc4cc([C@@H](C)O)nc(NC(C)C)c4n3)nn2)CC1 [Compound 960] |
| < 10 | ≥ 100 | CNC(=O)CN1CCN(c2ccc(Nc3ncc4cc([C@@H](C)O)nc(NC(C)C)c4n3)nc2)C(=O)C1 [Compound 961] |
| < 10 | ≥ 100 | CC(C)Nc1nc([C@@H](C)O)cc2cnc(Nc3ccc(N4CCN(CC(=O)N(C)C)CC4=O)cn3)nc12 [Compound 962] |
| < 10 | ≥ 100 | CC(C)Nc1nc([C@@H](C)O)cc2cnc(Nc3ccc(N4CCN(CC(F)(F)F)CC4)nn3)nc12 [Compound 963] |
| < 10 | ≥ 100 | CC(C)Nc1nc([C@@H](C)O)cc2cnc(Nc3ccc(N4CCn5cncc5C4)nn3)nc12 [Compound 964] |
| 10 to 100 | ≥ 100 | Cc1ncn(Cc2ccc(Nc3ncc4cc([C@@H](C)O)nc(NC(C)C)c4n3)nc2)c1C(=O)O [Compound 965] |
| < 10 | ≥ 100 | CC(C)Nc1nc([C@@H](C)O)cc2cnc(Nc3ccc(N4CCN(CC(=O)N5CCCC5)CC4)nn3)nc12 [Compound 966] |
| < 10 | ≥ 100 | CC(C)Nc1nc([C@@H](C)O)cc2cnc(Nc3ccc(N4CCN(CC(=O)N5CCOCC5)CC4)nn3)nc12 [Compound 967] |
| < 10 | ≥ 100 | CC(C)NC(=O)CN1CCN(c2ccc(Nc3ncc4cc([C@@H](C)O)nc(NC(C)C)c4n3)nn2)CC1 [Compound 968] |

| IC50 [1] [nM] | IC50 [2] [nM] | Compound |
| --- | --- | --- |
| 10 to 100 | ≥ 100 | CO[C@H](C)c1cc2cnc(Nc3ccc(CN4CCN(CC#N)CC4)cn3)nc2c(NC(C)C)n1 [Compound 969] |
| < 10 | ≥ 100 | CO[C@H](C)c1cc2cnc(Nc3ccc(CN4CCN(CC(N)=O)CC4)cn3)nc2c(NC(C)C)n1 [Compound 970] |
| < 10 | ≥ 100 | CNC(=O)CN1CCN(Cc2ccc(Nc3ncc4cc([C@@H](C)OC)nc(NC(C)C)c4n3)nc2)CC1 [Compound 971] |
| < 10 | ≥ 100 | CO[C@H](C)c1cc2cnc(Nc3ccc(CN4CCN(CC(=O)N(C)C)CC4)cn3)nc2c(NC(C)C)n1 [Compound 972] |
| 10 to 100 | ≥ 100 | CC(=O)c1cc2cnc(Nc3ccc(CN4CCN(CCO)CC4)cn3)nc2c(NCC(C)C)n1 [Compound 973] |
| 10 to 100 | ≥ 100 | CCCNc1nc(C(C)=O)cc2cnc(Nc3ccc(CN4CCN(CCO)CC4)cn3)nc12 [Compound 974] |
| 10 to 100 | ≥ 100 | CCCCNc1nc(C(C)=O)cc2cnc(Nc3ccc(CN4CCN(CCO)CC4)cn3)nc12 [Compound 975] |
| < 10 | ≥ 100 | CCNc1nc([C@@H](C)O)cc2cnc(Nc3ccc(CN4CCN(C[C@H](C)O)CC4)cn3)nc12 [Compound 976] |
| < 10 | ≥ 100 | CCNc1nc([C@@H](C)O)cc2cnc(Nc3ccc(CN4CCN(C[C@@H](C)O)CC4)cn3)nc12 [Compound 977] |
| < 10 | ≥ 100 | CO[C@H](C)c1cc2cnc(Nc3ccc(CN4CCNC[C@H]4C)cn3)nc2c(NC(C)C)n1 [Compound 978] |
| < 10 | ≥ 100 | CO[C@H](C)c1cc2cnc(Nc3ccc(CN4CCNC[C@@H]4C)cn3)nc2c(NC(C)C)n1 [Compound 979] |
| < 10 | ≥ 100 | CCNc1nc([C@@H](C)O)cc2cnc(Nc3ccc(N4CCN(C)CC4)nn3)nc12 [Compound 980] |
| < 10 | 10 to 100 | CC(C)Nc1nc([C@@H](C)O)c(F)c2cnc(Nc3ccc(N4CCNCC4=O)cn3)nc12 [Compound 981] |
| < 10 | ≥ 100 | CCNc1nc([C@@H](C)O)cc2cnc(Nc3ccc(CN4CCN(CCO)C[C@H]4C)cn3)nc12 [Compound 982] |
| < 10 | ≥ 100 | CCNc1nc([C@@H](C)O)cc2cnc(Nc3ccc(CN4CCN(CCO)C[C@@H]4C)cn3)nc12 [Compound 983] |
| < 10 | ≥ 100 | CCNc1nc([C@@H](C)O)c(Cl)c2cnc(Nc3ccc(CN4CCN(CCO)CC4)cn3)nc12 [Compound 984] |
| < 10 | ≥ 100 | CC(C)Nc1nc([C@@H](C)O)cc2cnc(Nc3ccc(N4CCNC[C@H]4C)cn3)nc12 [Compound 985] |
| < 10 | ≥ 100 | CC(C)Nc1nc([C@@H](C)O)cc2cnc(Nc3ccc(N4CCNC[C@@H]4C)cn3)nc12 [Compound 986] |
| < 10 | ≥ 100 | CC(C)Nc1nc([C@@H](C)O)cc2cnc(Nc3ccc(CN4CCN(C(=O)CO)CC4)cn3)nc12 [Compound 987] |
| < 10 | ≥ 100 | CO[C@H](C)c1cc2cnc(Nc3ccc(CN4CCN(C(=O)CO)CC4)cn3)nc2c(NC(C)C)n1 [Compound 988] |

| IC50 [1] [nM] | IC50 [2] [nM] | Compound |
| --- | --- | --- |
| < 10 | ≥ 100 | CC(C)Nc1nc([C@@H](C)O)cc2cnc(Nc3ccc(N4CCN(CC(=O)N(C)C)CC4)nn3)nc12 [Compound 991] |
| 10 to 100 | ≥ 100 | CC(C)Nc1nc(C2CCCO2)cc2cnc(Nc3ccc(N4CCNCC4)cn3)nc12 (stereo not shown) [Compound 992] |
| < 10 | ≥ 100 | CC(C)Nc1nc(C2CCCO2)cc2cnc(Nc3ccc(N4CCNCC4)cn3)nc12 (stereo not shown) [Compound 993] |
| < 10 | ≥ 100 | C[C@@H](O)c1cc2cnc(Nc3ccc(N4CCNCC4)cn3)nc2c(N[C@H]2CCOC2)n1 [Compound 994] |
| < 10 | ≥ 100 | C[C@@H](O)c1cc2cnc(Nc3ccc(N4CCNCC4)cn3)nc2c(N[C@@H]2CCOC2)n1 [Compound 995] |
| < 10 | ≥ 100 | CCNc1nc([C@@H](C)O)cc2cnc(Nc3ccc4c(n3)CCNC4)nc12 [Compound 996] |
| < 10 | ≥ 100 | C[C@@H](O)c1cc2cnc(Nc3ccc(CN4CCN(CCO)CC4)cn3)nc2c(NC2CC2)n1 [Compound 997] |
| < 10 | ≥ 100 | C[C@@H](O)c1cc2cnc(Nc3ccc(CN4CCN(CCO)CC4)cn3)nc2c(NC2CCC2)n1 [Compound 998] |
| < 10 | ≥ 100 | C[C@@H](O)c1cc2cnc(Nc3ccc(CN4CCN(CCO)CC4)cn3)nc2c(NCC2CC2)n1 [Compound 999] |
| 10 to 100 | ≥ 100 | CCCNc1nc([C@@H](C)O)cc2cnc(Nc3ccc(N4CCC(O)CC4)nn3)nc12 [Compound 1000] |
| < 10 | ≥ 100 | CCNc1nc([C@@H](C)O)cc2cnc(Nc3ccc(N4CCNCC4)cn3)nc12 [Compound 1001] |
| < 10 | ≥ 100 | CCCNc1nc(C2(C)COC2)cc2cnc(Nc3ccc(N4CCNCC4)cn3)nc12 [Compound 1002] |
| < 10 | ≥ 100 | CCCNc1nc(C2(C)COC2)cc2cnc(Nc3ccc(CN4CCNCC4)cn3)nc12 [Compound 1003] |
| < 10 | ≥ 100 | CCCNc1nc(C2CCOC2)cc2cnc(Nc3ccc(N4CCNCC4)cn3)nc12 (stereo not shown) [Compound 1004] |
| < 10 | ≥ 100 | CCCNc1nc(C2CCOC2)cc2cnc(Nc3ccc(CN4CCNCC4)cn3)nc12 (stereo not shown) [Compound 1005] |
| < 10 | ≥ 100 | CC(C)Nc1nc(C2(C)COC2)cc2cnc(Nc3ccc(N4CCNCC4)cn3)nc12 [Compound 1006] |
| < 10 | ≥ 100 | CC(C)Nc1nc(C2CCOC2)cc2cnc(Nc3ccc(N4CCNCC4)cn3)nc12 (stereo not shown) [Compound 1007] |
| < 10 | ≥ 100 | CCCNc1nc([C@@H](C)OC)cc2cnc(Nc3ccc(N4CC5(CC(NC)C5)C4)cn3)nc12 [Compound 1008] |
| < 10 | ≥ 100 | CNC1CC2(C1)CN(c1ccc(Nc3ncc4cc([C@@H](C)OC)nc(N[C@H]5CCCOC5)c4n3)nc1)C2 [Compound 1009] |
